Consider 2 compounds from patent publication US20150150879A2, “Compositions for Treatment of Cystic Fibrosis and Other Chronic Diseases” (Vertex Pharmaceuticals Incorporated, priority 2010, published 2015).

The target in the experiment is T1, ΔF508-CFTR (Homo sapiens, UniProt P13569, DEL508-508).
T1 construct: expressed in transfected cells
Description: Membrane potential optical (FRET/VIPR) assay, identification of potentiator compounds, NIH3T3 cells stably expressing ΔF508-CFTR. The experiment is classed as cell-based. The conditions noted are these: Table II.A-4, assay not given; for EC50: modulators of ATP binding cassette transporters. The source says: I) Membrane Potential Optical Methods for Assaying ΔF508-CFTR Modulation Properties of Compounds
The optical membrane potential assay utilized voltage-sensitive FRET sensors described by Gonzalez and Tsien (See, Gonzalez, J. E. and R. Y. Tsien (1995) “Voltage sensing by fluorescence resonance energy transfer in single cells” Biophys J 69(4): 1272-80, and Gonzalez, J. E. and R. Y. Tsien (1997) “Improved indicators of cell membrane potential that use fluorescence resonance energy transfer” Chem Biol 4(4): 269-77) in combination with instrumentation for measuring fluorescence changes such as the Voltage/Ion Probe Reader (VIPR) (See, Gonzalez, J. E., K. Oades, et al. (1999) “Cell-based assays and instrumentation for screening ion-channel targets” Drug Discov Today 4(9): 431-439).
These voltage sensitive assays are based on the change in fluorescence resonant energy transfer (FRET) between the membrane-soluble, voltage-sensitive dye, DiSBAC2(3), and a fluorescent phospholipid, CC2-DMPE, which is attached to the outer leaflet of the plasma membrane and acts as a FRET donor. Changes in membrane potential (Vm) cause the negatively charged DiSBAC2(3) to redistribute across the plasma membrane and the amount of energy transfer from CC2-DMPE changes accordingly. The changes in fluorescence emission were monitored using VIPR™ II, which is an integrated liquid handler and fluorescent detector designed to conduct cell-based screens in 96- or 384-well microtiter plates.
Identification of Potentiator Compounds
To identify potentiators of ΔF508-CFTR, a double-addition HTS assay format was developed. During the first addition, a Cl^−-free medium with or without test compound was added to each well. After 22 sec, a second addition of Cl^−-free medium containing 2-10 μM forskolin was added to activate ΔF508-CFTR. The extracellular Cl^− concentration following both additions was 28 mM, which promoted Cl^− efflux in response to ΔF508-CFTR activation and the resulting membrane depolarization was optically monitored using the FRET-based voltage-sensor dyes. Solutions […]

T1 sequence (P13569 with tags, fused parts or gaps DEL508-508): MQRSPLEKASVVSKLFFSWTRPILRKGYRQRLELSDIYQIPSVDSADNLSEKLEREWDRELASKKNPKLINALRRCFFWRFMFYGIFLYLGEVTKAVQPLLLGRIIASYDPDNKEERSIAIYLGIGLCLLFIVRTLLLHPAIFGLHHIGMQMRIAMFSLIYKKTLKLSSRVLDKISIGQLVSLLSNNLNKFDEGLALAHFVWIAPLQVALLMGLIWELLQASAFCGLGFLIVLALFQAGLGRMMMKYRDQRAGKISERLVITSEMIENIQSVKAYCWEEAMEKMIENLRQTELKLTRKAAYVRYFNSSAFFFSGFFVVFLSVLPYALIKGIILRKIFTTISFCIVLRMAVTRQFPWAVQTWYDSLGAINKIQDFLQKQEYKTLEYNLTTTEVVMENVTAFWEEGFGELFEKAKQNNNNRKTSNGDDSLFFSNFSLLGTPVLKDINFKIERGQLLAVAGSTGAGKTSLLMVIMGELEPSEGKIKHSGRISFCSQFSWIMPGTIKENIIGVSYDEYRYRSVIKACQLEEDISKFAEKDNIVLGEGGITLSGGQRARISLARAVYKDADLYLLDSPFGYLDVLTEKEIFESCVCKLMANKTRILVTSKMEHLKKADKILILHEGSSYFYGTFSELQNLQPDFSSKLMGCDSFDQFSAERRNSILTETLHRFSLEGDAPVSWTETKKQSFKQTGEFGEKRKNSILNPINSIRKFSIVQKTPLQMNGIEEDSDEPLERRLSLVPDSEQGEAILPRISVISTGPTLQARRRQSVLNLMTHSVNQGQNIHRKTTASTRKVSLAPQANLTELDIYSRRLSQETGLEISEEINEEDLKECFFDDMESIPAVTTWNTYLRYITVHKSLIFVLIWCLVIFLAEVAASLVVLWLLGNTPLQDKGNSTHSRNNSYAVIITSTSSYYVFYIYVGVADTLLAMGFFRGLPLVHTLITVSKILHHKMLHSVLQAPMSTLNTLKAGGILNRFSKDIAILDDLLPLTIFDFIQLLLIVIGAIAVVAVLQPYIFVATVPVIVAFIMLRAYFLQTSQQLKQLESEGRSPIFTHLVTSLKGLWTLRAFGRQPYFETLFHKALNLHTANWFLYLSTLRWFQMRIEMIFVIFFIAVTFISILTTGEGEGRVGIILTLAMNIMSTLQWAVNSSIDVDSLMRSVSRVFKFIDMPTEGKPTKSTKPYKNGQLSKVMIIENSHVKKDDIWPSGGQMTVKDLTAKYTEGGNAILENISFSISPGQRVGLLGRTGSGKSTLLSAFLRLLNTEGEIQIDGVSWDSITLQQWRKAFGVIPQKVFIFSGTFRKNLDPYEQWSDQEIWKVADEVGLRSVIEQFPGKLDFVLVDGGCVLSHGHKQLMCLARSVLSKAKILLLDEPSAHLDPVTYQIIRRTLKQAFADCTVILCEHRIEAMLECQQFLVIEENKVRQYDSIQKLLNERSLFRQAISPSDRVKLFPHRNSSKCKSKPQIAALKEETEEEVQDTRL

As a reminder, the EC50 is the midpoint of the concentration-response curve. Regarding `Cc1cc2nc(NC(=O)c3c[nH]c4ccccc4c3=O)[nH]c2cc1C` [compound 422, N-(5,6-dimethyl-3H-benzoimidazol-2-yl)-4-oxo-1H-quinoline-3-carboxamide], the EC50 was less than 10 µM.
Consider `CC(C)(C)c1cc(C(C)(C)C)c(NC(=O)c2c[nH]c3cccc(O)c3c2=O)cc1O` [Compound 464, 5-hydroxy-N-(5-hydroxy-2,4-ditert-butyl-phenyl)-4-oxo-1H-quinoline-3-carboxamide], for which the EC50 was less than 10 µM. The “% Activity (relative efficacy)” value (relative efficacy) is “++ (“++” means between 25% to 100%)”.
